Measured values taken from US11725036B2, “Modified lipidated relaxin B chain peptides and their therapeutic use” (Sanofi, priority 2018, dated 2023).
Starred links: 1 amine or outer side, 2 acyl side, 3 side chain; linkers in the order of their positions; H or OH if unused. Non-standard residues stand in square brackets, D forms with d. Residues, ends and D or L forms follow the SMILES beside them. Groups on a side chain read outwards from the residue. *: point of attachment. X5 = CCCCCCCCCCCCCCCC(=O)N[C@@H](CCC(=O)N[C@@H](CCC(=O)N[C@@H](CCC(=O)NCCCOCCOCCOCCCNC(=O)CCC(=O)NCCCOCCOCCOCCCNC(=O)CCC(=O)NCCCOCCOCCOCCCNC(=O)CCC(=O)NCCCOCCOCCOCCCN*)C(=O)O)C(=O)O)C(=O)O; X3 = CCCCCCCCCCCCCCCCCC(=O)N[C@@H](CCC(=O)N[C@@H](CCC(=O)N[C@@H](CCC(=O)NCCCOCCOCCOCCCNC(=O)CCC(=O)NCCCOCCOCCOCCCNC(=O)CCC(=O)NCCCOCCOCCOCCCN*)C(=O)O)C(=O)O)C(=O)O; X1 = CCCCCCCCCCCCCCCC(=O)N[C@@H](CCC(=O)N[C@@H](CCC(=O)N[C@@H](CCC(=O)NCCCOCCOCCOCCCNC(=O)CCC(=O)NCCCOCCOCCOCCCNC(=O)CCC(=O)NCCCOCCOCCOCCCN*)C(=O)O)C(=O)O)C(=O)O; X8 = CCCCCCCCCCCCCCCC(=O)N[C@@H](CCC(=O)N[C@@H](CCC(=O)N[C@@H](CCC(=O)N[C@@H](CCC(=O)NCCCOCCOCCOCCCNC(=O)CCC(=O)NCCCOCCOCCOCCCN*)C(=O)O)C(=O)O)C(=O)O)C(=O)O; Suc = O=C(CCC(=O)[*:2])[*:1]; αMeK = C[C@](N)(CCCCN)C(=O)O; Aib = CC(C)(N)C(=O)O

Target: T1, RXFP1 (Homo sapiens, UniProt Q9HBX9)
T1 construct: OVCAR5 cells expressing endogenous RXFP1; endogenous in cells; host or cells: OVCAR5
T1 sequence (Q9HBX9 1-757): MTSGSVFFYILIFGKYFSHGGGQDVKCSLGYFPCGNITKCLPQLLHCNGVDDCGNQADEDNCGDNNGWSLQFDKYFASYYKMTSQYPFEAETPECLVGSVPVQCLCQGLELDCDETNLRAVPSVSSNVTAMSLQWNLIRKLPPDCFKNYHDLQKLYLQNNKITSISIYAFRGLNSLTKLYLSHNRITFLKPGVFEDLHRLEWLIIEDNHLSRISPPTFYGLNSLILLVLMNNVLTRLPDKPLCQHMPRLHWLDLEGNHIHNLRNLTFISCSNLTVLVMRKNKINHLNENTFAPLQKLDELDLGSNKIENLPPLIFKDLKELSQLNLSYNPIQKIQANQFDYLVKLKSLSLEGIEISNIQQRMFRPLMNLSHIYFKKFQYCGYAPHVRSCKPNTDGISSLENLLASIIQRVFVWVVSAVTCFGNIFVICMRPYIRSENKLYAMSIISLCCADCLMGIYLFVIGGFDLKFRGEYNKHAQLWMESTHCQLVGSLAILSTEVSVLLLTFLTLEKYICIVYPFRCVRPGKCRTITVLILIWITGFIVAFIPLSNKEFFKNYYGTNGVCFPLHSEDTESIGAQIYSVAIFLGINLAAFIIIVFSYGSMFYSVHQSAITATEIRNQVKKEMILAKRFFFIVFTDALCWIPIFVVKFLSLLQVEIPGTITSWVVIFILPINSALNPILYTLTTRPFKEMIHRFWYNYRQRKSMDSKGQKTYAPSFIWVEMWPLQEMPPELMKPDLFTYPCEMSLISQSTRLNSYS
Assay: OVCAR5 cAMP assay (HTRF)
Assay type: cell-based
Conditions: for EC50: OVCAR 5 cells expressing endogenous RXFP1, cAMP readout; for Emax: OVCAR 5 cells, maximal cAMP relative to H2-relaxin
Source text: OVCAR5 cells expressing endogenous RXFP1 were used to test RXP1 agonist properties of peptides of the invention, and in particular of the peptides of sequence SEQ ID NO: 1-97.
Since RXFP1 is a Gs coupled GPCR, cAMP was used as readout of RXFP1 activation.
Isobutyl Methyl Xanthine (IBMX) was used to inhibit phosphodiesterase activity facilitating cAMP measurements. HTRF (Homogenous Time Resolved Fluorescence) technology was used to detect cAMP due to its great sensitivity.
In summary, OVCAR5 were grown in regular medium (RPMI) containing 10% fetal calf serum (FCS) and 1% antibiotics (penicillin/streptomycin).
Before the experiments, cells were detached with accutase and incubated for 40 minutes at 37° C. with 1 mM (3-isobutyl-1-methylxanthine) IBMX.
Cells were then distributed in 384 black well plates containing increasing concentrations of the different peptides in a fix volume of medium (without FCS).
After an incubation of 30 min at 37° C. in an humid incubator in 5% CO2, the reaction was stopped by adding a fixed volume of a solution containing a lysis buffer and cAMP-D2 (cAMP labeled with the dye d2) and the anti cAMP antibody linked to Europium and used for cAMP detection.
Readout of the experiment were performed on a fluorimeter allowing HTRF measurement. Activation curves were generated by plotting the intracellular value of cAMP versus log 10 of the compound concentration.
The 50% activation concentration (EC50) was calculated by nonlinear regression using the sigmoidal dose-response (variable slope) equation with Prism 5 software.
Emax % was determined as the maximal intracellular value of cAMP for test compound (upper limit of cAMP vs concentration curve) divided by the maximal intracellular value of cAMP for H2-relaxin determined in the same test occasion multiplied by 100. Emax %=100×[cAMPtest cpd]/[cAMPH2-Rlx]

Compound CCCCCCCCCCCCCCCC(=O)N[C@@H](CCC(=O)N[C@@H](CCC(=O)N[C@@H](CCC(=O)N[C@@H](CCC(=O)NCCCOCCOCCOCCCNC(=O)CCC(=O)NCCCOCCOCCOCCCNC(=O)CCC(=O)NCCCC[C@H](NC(=O)CNC(=O)[C@H](CCC(=O)O)NC(=O)C(C)(C)NC(=O)C(C)(C)NC(=O)[C@@H](NC(=O)[C@H](CCCCNC(C)=O)NC(=O)[C@H](C)NC(=O)[C@H](CCCNC(=N)N)NC(=O)[C@@H](NC(=O)[C@H](CCCCN)NC(=O)[C@H](CCC(=O)O)NC(=O)[C@H](CCCNC(=N)N)NC(=O)CNC(=O)[C@H](CCC(=O)O)NC(=O)[C@H](CC(C)C)NC(C)=O)C(C)C)[C@@H](C)CC)C(=O)N[C@@H](CO)C(=O)N[C@H](C(=O)N[C@@H](Cc1ccccc1)C(=O)N[C@@H](CO)C(=O)N[C@@](C)(CCCCN)C(=O)N[C@@H](CCCNC(=N)N)C(=O)N[C@@H](C)C(=O)N[C@@H](CCCCNC(C)=O)C(N)=O)[C@@H](C)O)C(=O)O)C(=O)O)C(=O)O)C(=O)O [compound 10] (Ac-LEGREKVRAK(Ac)I[Aib][Aib]EGK([Suc-X8])STFS[αMeK]RAK(Ac)-NH2) has an EC50 of 0.79 nM and an Emax of 95%.
In the case of CCCCCCCCCCCCCCCC(=O)N[C@@H](CCC(=O)N[C@@H](CCC(=O)N[C@@H](CCC(=O)NCCCOCCOCCOCCCNC(=O)CCC(=O)NCCCOCCOCCOCCCNC(=O)CCC(=O)NCCCOCCOCCOCCCNC(=O)CCC(=O)NCCCC[C@H](NC(=O)CNC(=O)[C@H](CCC(=O)O)NC(=O)C(C)(C)NC(=O)C(C)(C)NC(=O)[C@@H](NC(=O)[C@H](CCCCNC(C)=O)NC(=O)[C@H](C)NC(=O)[C@H](CCCNC(=N)N)NC(=O)[C@@H](NC(=O)[C@H](CC(C)C)NC(=O)[C@H](CCC(=O)O)NC(=O)[C@H](CCCNC(=N)N)NC(=O)CNC(=O)[C@H](CCC(=O)O)NC(=O)[C@H](CC(C)C)NC(C)=O)C(C)C)[C@@H](C)CC)C(=O)N[C@@H](CO)C(=O)N[C@H](C(=O)N[C@@H](Cc1c[nH]c2ccccc12)C(=O)N[C@@H](CO)C(=O)NC(C)(C)C(=O)N[C@@H](CCCNC(=N)N)C(=O)N[C@@H](CCCNC(=N)N)C(=O)N[C@@H](CCCCNC(C)=O)C(N)=O)[C@@H](C)O)C(=O)O)C(=O)O)C(=O)O [compound 37] (Ac-LEGRELVRAK(Ac)I[Aib][Aib]EGK([Suc-X1])STWS[Aib]RRK(Ac)-NH2), the EC50 was 5.6 nM and the Emax was 98%.
In the case of CCCCCCCCCCCCCCCCCC(=O)N[C@@H](CCC(=O)N[C@@H](CCC(=O)N[C@@H](CCC(=O)NCCCOCCOCCOCCCNC(=O)CCC(=O)NCCCOCCOCCOCCCNC(=O)CCC(=O)NCCCOCCOCCOCCCNC(=O)CCC(=O)NCCCC[C@H](NC(=O)CNC(=O)[C@H](CCC(=O)O)NC(=O)C(C)(C)NC(=O)C(C)(C)NC(=O)[C@@H](NC(=O)[C@H](CCCCNC(C)=O)NC(=O)[C@H](C)NC(=O)[C@H](CCCNC(=N)N)NC(=O)[C@@H](NC(=O)[C@H](CCCCN)NC(=O)[C@H](CCC(=O)O)NC(=O)[C@H](CCCNC(=N)N)NC(=O)CNC(=O)[C@H](CCC(=O)O)NC(=O)[C@H](CC(C)C)NC(C)=O)C(C)C)[C@@H](C)CC)C(=O)N[C@@H](CO)C(=O)N[C@H](C(=O)N[C@@H](Cc1c[nH]c2ccccc12)C(=O)N[C@@H](CO)C(=O)N[C@@](C)(CCCCN)C(=O)N[C@@H](CCCNC(=N)N)C(=O)N[C@@H](C)C(=O)N[C@@H](CCCCNC(C)=O)C(N)=O)[C@@H](C)O)C(=O)O)C(=O)O)C(=O)O [compound 30] (Ac-LEGREKVRAK(Ac)I[Aib][Aib]EGK([Suc-X3])STWS[αMeK]RAK(Ac)-NH2), the EC50 was 0.21 nM and the Emax was 89%.
CCCCCCCCCCCCCCCC(=O)N[C@@H](CCC(=O)N[C@@H](CCC(=O)N[C@@H](CCC(=O)NCCCOCCOCCOCCCNC(=O)CCC(=O)NCCCOCCOCCOCCCNC(=O)CCC(=O)NCCCOCCOCCOCCCNC(=O)CCC(=O)NCCCOCCOCCOCCCNC(=O)CCC(=O)NCCCC[C@H](NC(=O)CNC(=O)[C@H](CCC(=O)O)NC(=O)C(C)(C)NC(=O)C(C)(C)NC(=O)[C@@H](NC(=O)[C@H](CCCCNC(C)=O)NC(=O)[C@H](C)NC(=O)[C@H](CCCNC(=N)N)NC(=O)[C@@H](NC(=O)[C@H](CCCCN)NC(=O)[C@H](CCC(=O)O)NC(=O)[C@H](CCCNC(=N)N)NC(=O)CNC(=O)[C@H](CCC(=O)O)NC(=O)[C@H](CC(C)C)NC(C)=O)C(C)C)[C@@H](C)CC)C(=O)N[C@@H](CO)C(=O)N[C@H](C(=O)N[C@@H](Cc1ccccc1)C(=O)N[C@@H](CO)C(=O)N[C@@](C)(CCCCN)C(=O)N[C@@H](CCCNC(=N)N)C(=O)N[C@@H](C)C(=O)N[C@@H](CCCCNC(C)=O)C(N)=O)[C@@H](C)O)C(=O)O)C(=O)O)C(=O)O [compound 78] (Ac-LEGREKVRAK(Ac)I[Aib][Aib]EGK([Suc-X5])STFS[αMeK]RAK(Ac)-NH2) was tested, and the EC50 was 0.18 nM and the Emax was 99%.
